Measured values: patent US8741897B2, “Glucocorticoid mimetics, methods of making them, pharmaceutical compositions and uses thereof” (Boehringer Ingelheim Pharmaceuticals Inc., priority 2003, dated 2014)

Tested on: glucocorticoid receptor function
Assay: one or more of the above assays (GR binding and glucocorticoid receptor cell assays: aromatase, IL-6, TAT, MMTV-Luc, IL-8, ICAM-Luc)
Format: cell-based
Settings: assay not specified per compound
Procedure: B. Glucocorticoid Receptor Cell Assays
1. Induction of Aromatase in Fibroblasts (Cell Assay for Transactivation)
Dexamethasone, a synthetic ligand to the glucocorticoid receptor (GR), induces expression of aromatase in human foreskin fibroblast cells. The activity of aromatase is measured by the conversion of testosterone to estradiol in culture media.
On the day of the experiment, the media in the wells is replaced with fresh media. Cells are treated with test compounds to final concentrations of 10^−5 M to 10^−8 M, and testosterone to a final concentration of 300 ng/mL. Each well has a total volume of 100 μL. Samples are made in duplicates. Control wells include: (a) wells that receive testosterone only, and (b) wells that receive testosterone plus 2 μM of dexamethasone to provide maximum induction of aromatase. Plates are incubated at 37° C. overnight (15 to 18 hours), and supernatants are harvested at the end of incubation. […] The amount of estradiol is inversely proportional to the ELISA signals in each well. The extent of aromatase induction by test compounds is expressed as a relative percentage to dexamethasone. EC50 values of test compounds are derived by non-linear curve fitting.
2. Inhibition of IL-6 Production in Fibroblasts (Cell Assay for Transrepression)
Human foreskin fibroblast cells produce IL-6 in response to stimulation by proinflammatory cytokine IL-1.
On the next day, media in the wells is replaced with fresh media. Cells are treated with IL-1 (rhIL-1α, R&D Systems Cat. No. 200-LA) to a final concentration of 1 ng/mL, and with test compounds to final concentrations of 10^−5 M to 10^−8 M, in a total volume of 200 μL per well. Samples are done in duplicates. […] Positive control wells receive IL-1 only and represent maximum (or 100%) amount of IL-6 production. Plates are incubated at 37° C. overnight (15 to 18 hours), and supernatants are harvested at the end of incubation. IL-6 levels in the supernatants are determined by the ELISA kits for IL-6 (MedSystems Diagnostics GmbH, Vienna, Austria, Cat. No. BMS213TEN) according to manufacture's instructions. The extent of inhibition of IL-6 by test compounds is expressed in percentage relative to positive controls. IC50 values of test compounds are derived by non-linear curve fitting.
Evaluation of agonist or antagonist activity of compounds binding to the glucocorticoid receptor may be determined by any of the assays.
3. Modulation of Tyrosine Aminotransferase (TAT) Induction in Rat Hepatoma Cells
Testing of compounds for agonist or antagonist activity in induction of tyrosine aminotransferase (TAT) in rat hepatoma cells.
H4-II-E-C3 cells were incubated overnight in 96 well plates (20,000 cells/100 μL/well) in MEM medium containing 10% heat inactivated FBS and 1% nonessential amino acids. On the next day, cells were stimulated with the indicated concentrations of dexamethasone or test compound (dissolved in DMSO, final DMSO concentration 0.2%) for 18 hours. Control cells were treated with 0.2% DMSO. After 18 hours, the cells were lysed in a buffer containing 0.1% Triton X-100 and the TAT activity was measured in a photometric assay using tyrosine and alpha-ketoglutarate as substrates.
For measuring antagonist activity, the hepatoma cells were pre-stimulated by addition of dexamethasone (concentration ranges from 3×10^−9 M to 3×10^−8 M) shortly before the test compound was applied to the cells.
4. Modulation of MMTV-Luc Induction in HeLa Cells
Testing of compounds for agonist or antagonist activity in stimulation of MMTV-(mouse mammary tumor virus) promoter in HeLa cells.
Cells were cultured overnight in DMEM medium without phenol red, supplemented with 3% CCS (charcoal treated calf serum) and then transferred to 96 well plates (15,000 cells/100 μL/well).

| Structure (SMILES) | activity as agonists of the glucocorticoid receptor function in one or more of the above assays |
| --- | --- |
| Cc1nccc2[nH]c(CC(O)(CC(C)(C)c3cc(-c4ccccc4)ccc3O)C(F)(F)F)cc12 (centres unmarked) [3-[4,4,4-Trifluoro-3-hydroxy-1,1-dimethyl-3-(4-methyl-1H-pyrrolo[3,2-c]pyridin-2-ylmethyl)butyl]biphenyl-4-ol] | potent agonists |
| CC(C)(CC(O)(Cc1cc2nc(CN3CCOCC3)ccc2[nH]1)C(F)(F)F)c1cc(Cl)cc2c1OCC2 (centres unmarked) [4-(5-Chloro-2,3-dihydrobenzofuran-7-yl)-1,1,1-trifluoro-4-methyl-2-(5-morpholin-4-ylmethyl-1H-pyrrolo[3,2-b]pyridin-2-ylmethyl)pentan-2-ol] | potent agonists |
| CSc1cc2c(c(C(C)(C)CC(O)(Cc3cc4cc(Cl)ncc4[nH]3)C(F)(F)F)c1)OCC2 (centres unmarked) [2-(5-Chloro-1H-pyrrolo[2,3-c]pyridin-2-ylmethyl)-1,1,1-trifluoro-4-methyl-4-(5-methylsulfanyl-2,3-dihydrobenzofuran-7-yl)pentan-2-ol] | potent agonists |
| COc1ccc(-c2ccsc2)cc1C(C)(C)CC(O)(Cc1cc2ccncc2[nH]1)C(F)(F)F (centres unmarked) [1,1,1-Trifluoro-4-(2-methoxy-5-thiophen-3-ylphenyl)-4-methyl-2-(1H-pyrrolo[2,3-c]pyridin-2-ylmethyl)pentan-2-ol] | potent agonists |
| CCC(C)(C)C(O)(Cc1cc2ccncc2[nH]1)CC(C)(C)c1cc(F)ccc1OC (centres unmarked) [2-(5-Fluoro-2-methoxyphenyl)-2,5,5-trimethyl-4-(1H-pyrrolo[2,3-c]pyridin-2-ylmethyl)heptan-4-ol] | agonists |
| CC(C)(CC(O)(Cc1cc2ccncc2[nH]1)C(F)(F)F)c1cc(-c2ccsc2)ccc1O (centres unmarked) [4-Thiophen-3-yl-2-[4,4,4-trifluoro-3-hydroxy-1,1-dimethyl-3-(1H-pyrrolo[2,3-c]pyridin-2-ylmethyl)butyl]phenol] | potent agonists |
| COc1ccc(Br)cc1C(C)(C)CC(O)(Cc1cc2ccncc2[nH]1)C(F)(F)F (centres unmarked) [4-(5-Bromo-2-methoxyphenyl)-1,1,1-trifluoro-4-methyl-2-(1H-pyrrolo[2,3-c]pyridin-2-ylmethyl)pentan-2-ol] | potent agonists |
| CN(C)c1ccc(-c2ccc3[nH]c(CC(O)(CC(C)(C)c4cc(F)cc5c4OCC5)C(F)(F)F)cc3c2)cc1 (centres unmarked) [2-[5-(4-Dimethylaminophenyl)-1H-indol-2-ylmethyl]-1,1,1-trifluoro-4-(5-fluoro-2,3-dihydrobenzofuran-7-yl)-4-methylpentan-2-ol] | potent agonists |
| COc1ccc(F)cc1C(C)(C)CC(O)(Cc1cc2ccncc2[nH]1)C(C)C (centres unmarked) [5-(5-Fluoro-2-methoxyphenyl)-2,5-dimethyl-3-(1H-pyrrolo[2,3-c]pyridin-2-ylmethyl)hexan-3-ol] | agonists |
| CC(C)(CC(O)(Cc1cc2nc(-c3ccccc3)ncc2[nH]1)C(F)(F)F)c1cc(F)ccc1O (centres unmarked) [4-Fluoro-2-[4,4,4-trifluoro-3-hydroxy-1,1-dimethyl-3-(2-phenyl-5H-pyrrolo[3,2-d]pyrimidin-6-ylmethyl)butyl]phenol] | potent agonists |
| CCN(C)c1cc2cc(CC(O)(CC(C)(C)c3cc(-c4ccccc4C#N)ccc3O)C(F)(F)F)[nH]c2cn1 (centres unmarked) [3′-{3-[5-(Ethylmethylamino)-1H-pyrrolo[2,3-c]pyridin-2-ylmethyl]-4,4,4-trifluoro-3-hydroxy-1,1-dimethylbutyl}-4′-hydroxybiphenyl-2-carbonitrile] | potent agonists |
| CCN(CC)c1cc2cc(CC(O)(CC(C)(C)c3cc(F)ccc3C)C(F)(F)F)[nH]c2cn1 (centres unmarked) [2-(5-Diethylamino-1H-pyrrolo[2,3-c]pyridin-2-ylmethyl)-1,1,1-trifluoro-4-(5-fluoro-2-methylphenyl)-4-methylpentan-2-ol] | potent agonists |
| CC(C)(CC(O)(Cc1cc2cc(-c3ccncc3)ccc2[nH]1)C(F)(F)F)c1cc(F)cc2c1OCC2 (centres unmarked) [1,1,1-Trifluoro-4-(5-fluoro-2,3-dihydrobenzofuran-7-yl)-4-methyl-2-(5-pyridin-4-yl-1H-indol-2-ylmethyl)pentan-2-ol] | potent agonists |
| CC(C)(CC(O)(Cc1cc2cc(N3CCCCC3)ncc2[nH]1)C(F)(F)F)c1cccc(F)c1 (centres unmarked) [1,1,1-Trifluoro-4-(3-fluorophenyl)-4-methyl-2-(5-piperidin-1-yl-1H-pyrrolo[2,3-c]pyridin-2-ylmethyl)pentan-2-ol] | potent agonists |
| COc1ccc(Br)cc1C(C)(C)CC(O)(Cc1cc2cc(OC(C)C)ncc2[nH]1)C(F)(F)F (centres unmarked) [4-(5-Bromo-2-methoxyphenyl)-1,1,1-trifluoro-2-(5-isopropoxy-1H-pyrrolo[2,3-c]pyridin-2-ylmethyl)-4-methylpentan-2-ol] | potent agonists |
| COc1ccc(Br)cc1C(C)(C)CC(O)(Cc1cc2cc(N3CCOCC3)ncc2[nH]1)C(F)(F)F (centres unmarked) [4-(5-Bromo-2-methoxyphenyl)-1,1,1-trifluoro-4-methyl-2-(5-morpholin-4-yl-1H-pyrrolo[2,3-c]pyridin-2-ylmethyl)pentan-2-ol] | potent agonists |
| CC(C)(CC(O)(Cc1cc2nc(-c3ccccc3)ncc2[nH]1)C(F)(F)F)c1cccc(F)c1 (centres unmarked) [1,1,1-Trifluoro-4-(3-fluorophenyl)-4-methyl-2-(2-phenyl-5H-pyrrolo[3,2-d]pyrimidin-6-ylmethyl)pentan-2-ol] | potent agonists |
| Cc1ccc(F)cc1C(C)(C)CC(O)(Cc1cc2cnccc2[nH]1)C1CC1 (centres unmarked) [2-Cyclopropyl-4-(5-fluoro-2-methylphenyl)-4-methyl-1-(1H-pyrrolo[3,2-c]pyridin-2-yl)pentan-2-ol] | agonists |
| CC(C)(CC(O)(Cc1cc2cnccc2[nH]1)C(C)(C)C)c1cc(Cl)cc2c1OCC2 (centres unmarked) [5-(5-Chloro-2,3-dihydrobenzofuran-7-yl)-2,2,5-trimethyl-3-(1H-pyrrolo[3,2-c]pyridin-2-ylmethyl)hexan-3-ol] | agonists |
| CC(C)(CC(O)(Cc1cc2cc(N3CCOCC3)ncc2[nH]1)C(F)(F)F)c1ccccc1 (centres unmarked) [1,1,1-Trifluoro-4-methyl-2-(5-morpholin-4-yl-1H-pyrrolo[2,3-c]pyridin-2-ylmethyl)-4-phenylpentan-2-ol] | potent agonists |
| COc1ccc(Br)cc1C(C)(C)CC(O)(Cc1cc2cc(N(C)C)ncc2[nH]1)C(F)(F)F (centres unmarked) [4-(5-Bromo-2-methoxyphenyl)-2-(5-dimethylamino-1H-pyrrolo[2,3-c]pyridin-2-ylmethyl)-1,1,1-trifluoro-4-methylpentan-2-ol] | potent agonists |
| CC(C)(CC(O)(Cc1cc2cnccc2[nH]1)C(F)(F)F)c1cccc(CN2CCOCC2)c1 (centres unmarked) [1,1,1-Trifluoro-4-methyl-4-(3-morpholin-4-ylmethylphenyl)-2-(1H-pyrrolo[3,2-c]pyridin-2-ylmethyl)pentan-2-ol] | potent agonists |
| CC(C)(CC(O)(Cc1cc2ccncc2[nH]1)C(F)(F)F)c1cc(Br)ccc1O (centres unmarked) [4-Bromo-2-[4,4,4-trifluoro-3-hydroxy-1,1-dimethyl-3-(1H-pyrrolo[2,3-c]pyridin-2-ylmethyl)butyl]phenol] | potent agonists |
